Data from ChEMBL document CHEMBL4507320, “Data for DCP probe NVS-MALT1” (2021).

Experiments:
[1] = target: Activin receptor type-1B (Homo sapiens) (UniProt P36896); conditions: Compound concentration 1000.0 nM
[2] = target: Activin receptor type-2A (Homo sapiens) (UniProt P27037); conditions: Compound concentration 1000.0 nM
[3] = target: RAC-beta serine/threonine-protein kinase (Homo sapiens) (UniProt P31751); conditions: Compound concentration 1000.0 nM
[4] = target: Mitotic checkpoint serine/threonine-protein kinase BUB1 (Homo sapiens) (UniProt O43683); conditions: Compound concentration 1000.0 nM
[5] = target: Calcium/calmodulin-dependent protein kinase type 1D (Homo sapiens) (UniProt Q8IU85); conditions: Compound concentration 1000.0 nM
[6] = target: Cyclin-dependent kinase 13 (Homo sapiens) (UniProt Q14004); conditions: Compound concentration 1000.0 nM
[7] = target: Cyclin-dependent kinase 3 (Homo sapiens) (UniProt Q00526); conditions: Compound concentration 1000.0 nM
[8] = target: Casein kinase I isoform gamma-2 (Homo sapiens) (UniProt P78368); conditions: Compound concentration 1000.0 nM
[9] = target: Serine/threonine-protein kinase DCLK3 (Homo sapiens) (UniProt Q9C098); conditions: Compound concentration 1000.0 nM
[10] = target: Discoidin domain-containing receptor 2 (Homo sapiens) (UniProt Q16832); conditions: Compound concentration 1000.0 nM
[11] = tested on: Epidermal growth factor receptor (Homo sapiens), P00533 [UNDEFINED MUTATION]; conditions: Compound concentration 1000.0 nM
[12] = tested on: Epidermal growth factor receptor (Homo sapiens), P00533 [L858R,T790M]; conditions: Compound concentration 1000.0 nM
[13] = target: Mitogen-activated protein kinase 7 (Homo sapiens) (UniProt Q13164); conditions: Compound concentration 1000.0 nM
[14] = target: Fibroblast growth factor receptor 4 (Homo sapiens) (UniProt P22455); conditions: Compound concentration 1000.0 nM
[15] = tested on: Receptor-type tyrosine-protein kinase FLT3 (Homo sapiens), P36888 [D835H]; conditions: Compound concentration 1000.0 nM
[16] = tested on: Receptor-type tyrosine-protein kinase FLT3 (Homo sapiens), P36888 [K663Q]; conditions: Compound concentration 1000.0 nM
[17] = target: Serine/threonine-protein kinase haspin (Homo sapiens) (UniProt Q8TF76); conditions: Compound concentration 1000.0 nM
[18] = target: Interleukin-1 receptor-associated kinase 4 (Homo sapiens) (UniProt Q9NWZ3); conditions: Compound concentration 1000.0 nM
[19] = tested on: Mast/stem cell growth factor receptor Kit (Homo sapiens), P10721 [A829P]; conditions: Compound concentration 1000.0 nM
[20] = target: Mast/stem cell growth factor receptor Kit (Homo sapiens) (UniProt P10721); conditions: Compound concentration 1000.0 nM
[21] = target: Mitogen-activated protein kinase kinase kinase kinase 4 (Homo sapiens) (UniProt O95819); conditions: Compound concentration 1000.0 nM
[22] = target: Dual specificity mitogen-activated protein kinase kinase 4 (Homo sapiens) (UniProt P45985); conditions: Compound concentration 1000.0 nM
[23] = target: Dual specificity mitogen-activated protein kinase kinase 5 (Homo sapiens) (UniProt Q13163); conditions: Compound concentration 1000.0 nM
[24] = target: Misshapen-like kinase 1 (Homo sapiens) (UniProt Q8N4C8); conditions: Compound concentration 1000.0 nM
[25] = target: Serine/threonine-protein kinase MRCK beta (Homo sapiens) (UniProt Q9Y5S2); conditions: Compound concentration 1000.0 nM
[26] = target: Serine/threonine-protein kinase NLK (Homo sapiens) (UniProt Q9UBE8); conditions: Compound concentration 1000.0 nM
[27] = target: Mitogen-activated protein kinase 12 (Homo sapiens) (UniProt P53778); conditions: Compound concentration 1000.0 nM
[28] = target: Phosphorylase b kinase gamma catalytic chain, skeletal muscle/heart isoform (Homo sapiens) (UniProt Q16816); conditions: Compound concentration 1000.0 nM
[29] = target: Phosphorylase b kinase regulatory subunit alpha, liver isoform (Homo sapiens) (UniProt P46019); conditions: Compound concentration 1000.0 nM
[30] = tested on: Phosphatidylinositol 4,5-bisphosphate 3-kinase catalytic subunit alpha isoform (Homo sapiens), P42336 [C420R]; conditions: Compound concentration 1000.0 nM
[31] = target: Serine/threonine-protein kinase N1 (Homo sapiens) (UniProt Q16512); conditions: Compound concentration 1000.0 nM
[32] = target: Serine/threonine-protein kinase PLK1 (Homo sapiens) (UniProt P53350); conditions: Compound concentration 1000.0 nM
[33] = target: Serine/threonine-protein kinase D2 (Homo sapiens) (UniProt Q9BZL6); conditions: Compound concentration 1000.0 nM
[34] = target: Interferon-induced, double-stranded RNA-activated protein kinase (Homo sapiens) (UniProt P19525); conditions: Compound concentration 1000.0 nM
[35] = target: cAMP-dependent protein kinase catalytic subunit PRKX (Homo sapiens) (UniProt P51817); conditions: Compound concentration 1000.0 nM
[36] = target: Serine/threonine-protein kinase RIO2 (Homo sapiens) (UniProt Q9BVS4); conditions: Compound concentration 1000.0 nM
[37] = target: TGF-beta receptor type-2 (Homo sapiens) (UniProt P37173); conditions: Compound concentration 1000.0 nM
[38] = target: Serine/threonine-protein kinase tousled-like 1 (Homo sapiens) (UniProt Q9UKI8); conditions: Compound concentration 1000.0 nM
[39] = target: Tyrosine-protein kinase Yes (Homo sapiens) (UniProt P07947); conditions: Compound concentration 1000.0 nM
[40] = target: D(3) dopamine receptor (Homo sapiens) (UniProt P35462); conditions: Compound concentration 10.0 uM
[41] = target: Alpha-1A adrenergic receptor (Homo sapiens) (UniProt P35348); conditions: Compound concentration 10.0 uM
[42] = target: Alpha-2B adrenergic receptor (Homo sapiens) (UniProt P18089); conditions: Compound concentration 10.0 uM
[43] = target: GABA-A receptor; anion channel (Rattus norvegicus) (UniProt O09028+P15431+P18506+P18508+P19969+P20236+P23574+P23576+P28471+P28473+P30191+P62813+P63079+P63138+Q91ZM7+Q9ES14); conditions: Compound concentration 10.0 uM

D(3) dopamine receptor (Homo sapiens), sequence (P35462 whole entry): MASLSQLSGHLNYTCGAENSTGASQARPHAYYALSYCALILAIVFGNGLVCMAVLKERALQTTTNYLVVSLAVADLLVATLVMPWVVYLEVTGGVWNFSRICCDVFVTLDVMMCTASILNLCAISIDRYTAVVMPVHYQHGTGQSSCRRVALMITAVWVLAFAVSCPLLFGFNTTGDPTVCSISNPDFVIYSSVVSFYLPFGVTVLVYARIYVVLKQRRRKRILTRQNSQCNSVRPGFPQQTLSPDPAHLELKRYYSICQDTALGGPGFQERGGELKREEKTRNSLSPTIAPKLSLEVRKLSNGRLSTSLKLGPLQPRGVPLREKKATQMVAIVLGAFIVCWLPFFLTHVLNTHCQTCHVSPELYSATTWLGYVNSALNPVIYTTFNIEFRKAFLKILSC
Interferon-induced, double-stranded RNA-activated protein kinase (Homo sapiens), sequence (P19525 whole entry): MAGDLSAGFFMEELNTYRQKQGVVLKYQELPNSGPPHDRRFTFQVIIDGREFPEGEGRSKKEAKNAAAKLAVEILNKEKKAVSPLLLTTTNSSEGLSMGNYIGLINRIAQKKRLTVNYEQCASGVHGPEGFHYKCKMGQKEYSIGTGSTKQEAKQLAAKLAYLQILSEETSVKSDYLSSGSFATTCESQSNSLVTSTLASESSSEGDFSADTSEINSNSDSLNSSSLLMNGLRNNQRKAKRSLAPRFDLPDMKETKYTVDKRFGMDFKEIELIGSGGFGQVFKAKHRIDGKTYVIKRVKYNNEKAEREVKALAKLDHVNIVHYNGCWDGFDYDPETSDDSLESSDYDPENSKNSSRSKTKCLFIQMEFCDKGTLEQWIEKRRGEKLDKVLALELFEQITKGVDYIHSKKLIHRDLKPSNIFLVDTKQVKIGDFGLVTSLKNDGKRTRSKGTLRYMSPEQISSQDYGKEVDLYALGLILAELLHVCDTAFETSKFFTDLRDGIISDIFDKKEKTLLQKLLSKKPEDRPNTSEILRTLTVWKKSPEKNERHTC
Discoidin domain-containing receptor 2 (Homo sapiens), sequence (Q16832 whole entry, the tested form may be a part): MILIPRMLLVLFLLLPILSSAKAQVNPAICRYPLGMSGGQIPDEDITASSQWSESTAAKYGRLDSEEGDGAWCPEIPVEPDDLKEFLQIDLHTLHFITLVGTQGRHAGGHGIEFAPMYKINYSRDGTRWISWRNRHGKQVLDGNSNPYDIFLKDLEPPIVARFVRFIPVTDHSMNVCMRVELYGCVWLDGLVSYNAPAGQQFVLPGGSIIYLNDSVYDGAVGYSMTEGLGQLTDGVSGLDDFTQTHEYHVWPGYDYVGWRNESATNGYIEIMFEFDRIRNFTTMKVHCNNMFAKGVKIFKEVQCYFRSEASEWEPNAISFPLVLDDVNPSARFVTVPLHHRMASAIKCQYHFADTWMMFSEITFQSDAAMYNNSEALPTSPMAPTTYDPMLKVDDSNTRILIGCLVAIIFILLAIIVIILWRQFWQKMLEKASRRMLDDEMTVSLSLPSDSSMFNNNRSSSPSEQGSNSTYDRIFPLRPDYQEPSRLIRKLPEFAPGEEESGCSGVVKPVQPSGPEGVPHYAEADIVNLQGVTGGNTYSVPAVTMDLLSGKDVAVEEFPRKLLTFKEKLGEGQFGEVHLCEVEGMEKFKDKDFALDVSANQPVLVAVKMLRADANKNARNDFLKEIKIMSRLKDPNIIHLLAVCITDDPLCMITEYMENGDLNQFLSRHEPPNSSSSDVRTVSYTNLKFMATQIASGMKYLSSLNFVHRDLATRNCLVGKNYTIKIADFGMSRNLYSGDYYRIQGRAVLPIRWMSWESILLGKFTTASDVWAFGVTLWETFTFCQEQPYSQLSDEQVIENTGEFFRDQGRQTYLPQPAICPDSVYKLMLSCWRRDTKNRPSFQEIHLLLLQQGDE
Dual specificity mitogen-activated protein kinase kinase 5 (Homo sapiens), sequence (Q13163 whole entry): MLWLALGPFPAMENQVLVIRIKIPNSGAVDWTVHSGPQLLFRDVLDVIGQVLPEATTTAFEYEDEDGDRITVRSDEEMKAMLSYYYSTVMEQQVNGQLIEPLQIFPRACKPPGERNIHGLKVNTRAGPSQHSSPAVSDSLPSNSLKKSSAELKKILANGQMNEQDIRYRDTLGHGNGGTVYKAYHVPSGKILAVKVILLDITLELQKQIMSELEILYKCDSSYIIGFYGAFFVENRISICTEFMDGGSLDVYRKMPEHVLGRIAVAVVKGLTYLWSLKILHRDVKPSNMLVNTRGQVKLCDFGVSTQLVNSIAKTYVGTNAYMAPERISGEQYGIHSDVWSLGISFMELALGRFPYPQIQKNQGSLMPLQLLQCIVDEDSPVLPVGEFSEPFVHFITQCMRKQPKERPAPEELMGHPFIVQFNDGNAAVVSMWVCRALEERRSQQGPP
Activin receptor type-1B (Homo sapiens), sequence (P36896 whole entry): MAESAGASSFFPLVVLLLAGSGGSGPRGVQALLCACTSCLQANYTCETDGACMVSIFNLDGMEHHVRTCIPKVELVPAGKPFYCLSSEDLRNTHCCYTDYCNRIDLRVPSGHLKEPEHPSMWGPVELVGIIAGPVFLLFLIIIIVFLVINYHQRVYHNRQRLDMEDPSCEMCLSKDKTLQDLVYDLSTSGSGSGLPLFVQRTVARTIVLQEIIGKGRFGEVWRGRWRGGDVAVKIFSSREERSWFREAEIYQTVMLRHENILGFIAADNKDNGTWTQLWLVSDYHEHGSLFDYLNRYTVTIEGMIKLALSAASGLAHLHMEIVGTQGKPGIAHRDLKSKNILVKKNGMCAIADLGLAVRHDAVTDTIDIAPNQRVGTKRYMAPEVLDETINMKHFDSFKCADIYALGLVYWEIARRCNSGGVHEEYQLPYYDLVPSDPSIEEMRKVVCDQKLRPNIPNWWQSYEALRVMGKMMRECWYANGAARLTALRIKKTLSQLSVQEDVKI
Misshapen-like kinase 1 (Homo sapiens), sequence (Q8N4C8 whole entry, looked up): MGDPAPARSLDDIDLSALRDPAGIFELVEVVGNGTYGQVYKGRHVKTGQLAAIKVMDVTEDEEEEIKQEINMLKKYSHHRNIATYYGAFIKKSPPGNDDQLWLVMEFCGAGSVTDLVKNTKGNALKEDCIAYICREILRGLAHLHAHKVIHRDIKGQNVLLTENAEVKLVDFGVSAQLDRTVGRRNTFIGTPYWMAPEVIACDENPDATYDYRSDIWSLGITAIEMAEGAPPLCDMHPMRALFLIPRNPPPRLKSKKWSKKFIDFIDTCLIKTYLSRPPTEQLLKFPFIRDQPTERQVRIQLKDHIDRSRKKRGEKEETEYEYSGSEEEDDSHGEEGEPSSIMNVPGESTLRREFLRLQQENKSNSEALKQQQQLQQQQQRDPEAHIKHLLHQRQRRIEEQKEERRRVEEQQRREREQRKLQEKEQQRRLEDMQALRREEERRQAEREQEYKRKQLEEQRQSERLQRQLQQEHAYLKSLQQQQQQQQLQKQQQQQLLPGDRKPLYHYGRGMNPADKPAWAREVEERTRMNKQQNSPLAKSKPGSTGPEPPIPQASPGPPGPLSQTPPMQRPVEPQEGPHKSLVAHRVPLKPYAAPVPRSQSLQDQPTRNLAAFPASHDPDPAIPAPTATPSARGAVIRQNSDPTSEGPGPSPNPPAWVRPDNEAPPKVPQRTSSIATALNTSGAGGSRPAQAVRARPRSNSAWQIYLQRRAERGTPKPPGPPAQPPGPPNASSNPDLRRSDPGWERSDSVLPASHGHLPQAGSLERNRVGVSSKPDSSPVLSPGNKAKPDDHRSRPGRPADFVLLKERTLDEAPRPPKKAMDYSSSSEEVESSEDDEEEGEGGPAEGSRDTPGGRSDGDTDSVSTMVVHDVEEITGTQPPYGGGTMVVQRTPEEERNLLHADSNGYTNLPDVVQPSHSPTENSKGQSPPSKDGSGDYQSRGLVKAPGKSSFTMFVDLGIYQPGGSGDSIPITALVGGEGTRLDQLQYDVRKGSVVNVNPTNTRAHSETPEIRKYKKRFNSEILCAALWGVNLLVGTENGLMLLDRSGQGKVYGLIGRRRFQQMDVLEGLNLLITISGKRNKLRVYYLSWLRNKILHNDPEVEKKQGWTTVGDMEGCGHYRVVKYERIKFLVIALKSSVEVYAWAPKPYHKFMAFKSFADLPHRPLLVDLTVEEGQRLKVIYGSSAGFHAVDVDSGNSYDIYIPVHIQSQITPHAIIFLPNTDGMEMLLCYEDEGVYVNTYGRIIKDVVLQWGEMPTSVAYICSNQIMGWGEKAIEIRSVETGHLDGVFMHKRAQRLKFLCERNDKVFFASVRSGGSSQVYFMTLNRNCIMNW
Serine/threonine-protein kinase RIO2 (Homo sapiens), sequence (Q9BVS4 whole entry, looked up): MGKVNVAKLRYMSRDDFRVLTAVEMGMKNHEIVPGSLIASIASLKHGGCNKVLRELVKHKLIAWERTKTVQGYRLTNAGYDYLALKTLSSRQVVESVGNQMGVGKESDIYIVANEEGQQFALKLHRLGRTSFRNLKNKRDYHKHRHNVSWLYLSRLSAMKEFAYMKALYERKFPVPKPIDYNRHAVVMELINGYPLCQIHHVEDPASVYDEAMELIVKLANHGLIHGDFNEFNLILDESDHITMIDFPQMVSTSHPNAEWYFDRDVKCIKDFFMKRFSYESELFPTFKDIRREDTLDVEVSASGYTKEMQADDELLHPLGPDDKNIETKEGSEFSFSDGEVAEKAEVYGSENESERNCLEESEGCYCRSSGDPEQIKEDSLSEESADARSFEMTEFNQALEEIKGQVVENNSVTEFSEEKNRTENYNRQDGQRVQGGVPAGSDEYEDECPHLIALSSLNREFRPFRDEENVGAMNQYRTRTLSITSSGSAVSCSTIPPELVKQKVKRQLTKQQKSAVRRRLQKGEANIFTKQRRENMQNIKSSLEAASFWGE
cAMP-dependent protein kinase catalytic subunit PRKX (Homo sapiens), sequence (P51817 whole entry): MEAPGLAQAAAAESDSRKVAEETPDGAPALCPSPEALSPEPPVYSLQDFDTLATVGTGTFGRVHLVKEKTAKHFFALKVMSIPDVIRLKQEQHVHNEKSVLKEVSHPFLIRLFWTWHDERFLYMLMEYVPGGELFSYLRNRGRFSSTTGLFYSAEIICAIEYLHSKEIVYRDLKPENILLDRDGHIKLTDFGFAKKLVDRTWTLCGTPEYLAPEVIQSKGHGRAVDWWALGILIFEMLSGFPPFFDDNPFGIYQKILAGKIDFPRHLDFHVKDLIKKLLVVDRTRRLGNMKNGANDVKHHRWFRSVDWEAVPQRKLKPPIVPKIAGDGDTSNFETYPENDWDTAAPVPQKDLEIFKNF

For `CO[C@@H](C)c1c(Nc2ccc([C@@H](N(C)C(=O)C3CCS(=O)(=O)CC3)C(F)(F)F)cc2)cnc2cc(Cl)nn12` [NVS-MALT1-C], the residual activity [1] was 100%, the residual activity [2] was 100% and the residual activity [3] was 91%. It also gave a residual activity [4] of 100%, a residual activity [5] of 100% and a residual activity [6] of 100%. It also gave a residual activity [7] of 88%, a residual activity [8] of 84% and a residual activity [9] of 100%. For the same compound, the residual activity [10] was 100%, the residual activity [11] was 90% and the residual activity [12] was 72%. It also gave a residual activity [13] of 100%, a residual activity [14] of 92% and a residual activity [15] of 63%. It also gave a residual activity [16] of 94%, a residual activity [17] of 100% and a residual activity [18] of 89%. For the same compound, the residual activity [19] was 100%, the residual activity [20] was 85% and the residual activity [21] was 100%. For the same compound, the residual activity [22] was 100%, the residual activity [23] was 91% and the residual activity [24] was 100%. The residual activity [25] was 89%, the residual activity [26] was 84% and the residual activity [27] was 92%. For the same compound, the residual activity [28] was 96%, the residual activity [29] was 44% and the residual activity [30] was 93%. For the same compound, the residual activity [31] was 99%, the residual activity [32] was 87% and the residual activity [33] was 86%. The residual activity [34] was 88%, the residual activity [35] was 84% and the residual activity [36] was 89%. For the same compound, the residual activity [37] was 100%, the residual activity [38] was 100% and the residual activity [39] was 100%. It also gave an inhibition [40] of -5.92%, an inhibition [41] of -3.44% and an inhibition [42] of 1.55%. For the same compound, the inhibition [43] was 20.8%.

`CO[C@@H](C)c1c(Nc2ccc([C@H](N(C)C(=O)C3CCS(=O)(=O)CC3)C(F)(F)F)cc2)cnc2cc(Cl)nn12` [NVS-MALT1] showed a residual activity [1] of 72%, a residual activity [2] of 93% and a residual activity [3] of 99%. It also gave a residual activity [4] of 100%, a residual activity [5] of 99% and a residual activity [6] of 100%. The residual activity [7] was 90%, the residual activity [8] was 93% and the residual activity [9] was 100%. For the same compound, the residual activity [10] was 100%, the residual activity [11] was 100% and the residual activity [12] was 80%. For the same compound, the residual activity [13] was 92%, the residual activity [14] was 85% and the residual activity [15] was 75%. For the same compound, the residual activity [16] was 100%, the residual activity [17] was 100% and the residual activity [18] was 88%. For the same compound, the residual activity [19] was 100%, the residual activity [20] was 98% and the residual activity [21] was 100%. For the same compound, the residual activity [22] was 100%, the residual activity [23] was 60% and the residual activity [24] was 100%. It also gave a residual activity [25] of 81%, a residual activity [26] of 83% and a residual activity [27] of 98%. The residual activity [28] was 93%, the residual activity [29] was 96% and the residual activity [30] was 93%. For the same compound, the residual activity [31] was 100%, the residual activity [32] was 77% and the residual activity [33] was 83%. It also gave a residual activity [34] of 96%, a residual activity [35] of 88% and a residual activity [36] of 90%. For the same compound, the residual activity [37] was 100%, the residual activity [38] was 100% and the residual activity [39] was 99%. It also gave an inhibition [40] of -4.43%, an inhibition [41] of -7.59% and an inhibition [42] of 0.32%. It also gave an inhibition [43] of 21.3%.
